The assay has as its system BDF1 mice, P388 leukemia ip, median survival T/C. The assay can be described thus: NCI In Vivo Anticancer Drug Screen. Data for tumor model P388 Leukemia (intraperitoneal) in B6D2F1 (BDF1) mice. The note with it: endpoint: median survival time, higher = longer survival. As for the experimental part: The antitumor activity of compounds was measured in mice bearing transplantable tumors. Survival or tumor size were measured and the results are expressed as the measurement made in the treated group (T) divided by the measurement made in the vehicle treated control group (C). The tumor model used in this assay is P388 Leukemia (intraperitoneal) in B6D2F1 (BDF1) mice

The mark [1] stands for this setting: dose: 100.0 mg/kg/injection, schedule: Q04DX003 (ip), vehicle: saline with Tween-80.
[2] abbreviates: dose: 200.0 mg/kg/injection, schedule: Q04DX003 (ip), vehicle: saline with Tween-80.
The mark [3] stands for this setting: dose: 400.0 mg/kg/injection, schedule: Q04DX003 (ip), vehicle: saline with Tween-80.
[4] abbreviates: dose: 100.0 mg/kg/injection, schedule: Q04DX003 (ip), vehicle: saline.
[5] abbreviates: dose: 200.0 mg/kg/injection, schedule: Q04DX003 (ip), vehicle: saline.
[6] abbreviates: dose: 100.0 mg/kg/injection, schedule: Q01DX001 (ip), vehicle: saline.
Setting [7] is: dose: 200.0 mg/kg/injection, schedule: Q01DX001 (ip), vehicle: saline.
The mark [8] stands for this setting: dose: 50.0 mg/kg/injection, schedule: Q01DX009 (ip), vehicle: saline.
The mark [9] stands for this setting: dose: 100.0 mg/kg/injection, schedule: Q01DX009 (ip), vehicle: saline.
Where [10] appears, read: dose: 25.0 mg/kg/injection, schedule: Q01DX009 (ip), vehicle: saline with Tween-80.
Setting [11] is: dose: 50.0 mg/kg/injection, schedule: Q01DX009 (ip), vehicle: saline with Tween-80.
Setting [12] is: dose: 100.0 mg/kg/injection, schedule: Q01DX009 (ip), vehicle: saline with Tween-80.
Setting [13] is: dose: 200.0 mg/kg/injection, schedule: Q01DX009 (ip), vehicle: saline with Tween-80.
[14] abbreviates: dose: 25.0 mg/kg/injection, schedule: Q01DX001 (ip), vehicle: saline with Tween-80.
Where [15] appears, read: dose: 50.0 mg/kg/injection, schedule: Q04DX003 (ip), vehicle: saline with Tween-80.
Setting [16] is: dose: 150.0 mg/kg/injection, schedule: Q01DX009 (ip), vehicle: saline with Tween-80.

Several values for one entry are separate records, joined by “and”; a condition that tells them apart may be missing. Identical values can stand only once. Inconclusive results and toxic doses are left out.

As to `O=[N+]([O-])c1cccc2c1CCCC2`, the T/C runs as follows: under setting [1], 110 % of control; under setting [2], 110 % of control; under setting [3], 120 % of control.

`O=C(Nc1cc(C(F)(F)F)ccc1Cl)Nc1cc(C(F)(F)F)c(Cl)cc1S(=O)(=O)O`: the T/C is, setting by setting: (dose: 50.0 mg/kg/injection, schedule: Q04DX003 (ip), vehicle: saline) 90 % of control; under setting [4], 109 % of control; under setting [5], 122 % of control.

With `CC1(C)OC(COCCOCCOCCCO)C(COCCOCCOCCCO)O1` (centres undefined), the T/C is 112 % of control under setting [6]; 100 % of control (dose: 100.0 mg/kg/injection, schedule: Q01DX001 (ip), vehicle: suspension in saline); 111 % of control under setting [7]; 98 % of control (dose: 200.0 mg/kg/injection, schedule: Q01DX001 (ip), vehicle: suspension in saline); 120 % of control (dose: 400.0 mg/kg/injection, schedule: Q01DX001 (ip), vehicle: suspension in saline); 100 % of control (dose: 800.0 mg/kg/injection, schedule: Q01DX001 (ip), vehicle: suspension in saline).

`O=C(NC(COC(=O)C(Cc1ccccc1)NC(=O)c1ccccc1)Cc1ccccc1)c1ccccc1` (centres undefined): the T/C (dose: 4.0 mg/kg/injection, schedule: Q01DX009 (ip), vehicle: Klucel (hydroxypropylcellulose) (HPC)) was 102 % of control; the T/C (dose: 8.0 mg/kg/injection, schedule: Q01DX009 (ip), vehicle: Klucel (hydroxypropylcellulose) (HPC)) was 104 % of control; the T/C (dose: 16.0 mg/kg/injection, schedule: Q01DX009 (ip), vehicle: Klucel (hydroxypropylcellulose) (HPC)) is 93 % of control; the T/C (dose: 32.0 mg/kg/injection, schedule: Q01DX009 (ip), vehicle: Klucel (hydroxypropylcellulose) (HPC)) is 98 % of control.

On to `O=C(NC(CSC(c1ccccc1)(c1ccccc1)c1ccccc1)C(=O)O)OCc1ccccc1` (centres undefined), for which the T/C is 100 % of control and 110 % of control under setting [8]; 122 % of control under setting [9]; 100 % of control under setting [4]; 118 % of control (dose: 200.0 mg/kg/injection, schedule: Q01DX009 (ip), vehicle: saline); 104 % of control under setting [5]; 100 % of control (dose: 400.0 mg/kg/injection, schedule: Q04DX003 (ip), vehicle: saline).

As for `COC(=O)CCC(=O)CCC(C)C`, the T/C was 107 % of control under setting [10]; 103 % of control under setting [11]; 92 % of control under setting [12]; 111 % of control under setting [1]; 103 % of control under setting [13]; 122 % of control under setting [2]. The T/C runs as follows: (dose: 400.0 mg/kg/injection, schedule: Q01DX009 (ip), vehicle: saline with Tween-80) 92 % of control; under setting [3], 116 % of control.

Regarding `CCSC(C(OC(C)=O)C(OC(C)=O)C(OC(C)=O)C(COC(C)=O)OC(C)=O)n1cnc2c(=S)nc[nH]c21` (centres undefined), the T/C (dose: 12.5 mg/kg/injection, schedule: Q01DX005 (ip), vehicle: saline with Tween-80) was 98 % of control and the T/C (dose: 25.0 mg/kg/injection, schedule: Q01DX005 (ip), vehicle: saline with Tween-80) was 95 % of control.

As for `COc1cccc(C(O)c2ccncc2C)c1OC` (centres undefined), the T/C reads like this: (dose: 12.5 mg/kg/injection, schedule: Q04DX003 (ip), vehicle: water) 103 % of control; (dose: 25.0 mg/kg/injection, schedule: Q04DX003 (ip), vehicle: water) 97 % of control; (dose: 50.0 mg/kg/injection, schedule: Q04DX003 (ip), vehicle: water) 102 % of control; (dose: 100.0 mg/kg/injection, schedule: Q04DX003 (ip), vehicle: water) 112 % of control; (dose: 200.0 mg/kg/injection, schedule: Q04DX003 (ip), vehicle: water) 97 % of control.

With `O=C1OC(=O)C2C1C(c1ccc(Cl)cc1)N1C3C(=O)OC(=O)C3C(c3ccc(Cl)cc3)N21` (centres undefined), the T/C is, setting by setting: under setting [11], 97 % of control; under setting [12], 93 % of control; under setting [13], 88 % of control.

With `C1CC[N-]CC1.C1CC[N-]CC1.C1CC[N-]CC1.[Cl][Rh]([Cl])[Cl]`, the T/C by setting is: (dose: 12.5 mg/kg/injection, schedule: Q01DX009 (ip), vehicle: saline) 156 % of control; (dose: 25.0 mg/kg/injection, schedule: Q01DX009 (ip), vehicle: saline) 157 % of control; under setting [8], 161 % of control and 175 % of control.

Turning to `OC(Cc1nc2ccccc2nc1CC(O)(c1ccccc1)c1ccccc1)(c1ccccc1)c1ccccc1`, the T/C by setting is: under setting [11], 90 % of control; under setting [12], 98 % of control; under setting [13], 106 % of control.

`C=C1C(=O)[C@]23C[C@H]1CC[C@H]2[C@@]12CO[C@@H](O)[C@@H]1C(C)(C)[C@@H](O)C[C@@H]2OC3=O`: the T/C by setting is: (dose: 3.13 mg/kg/injection, schedule: Q01DX009 (ip), vehicle: saline with Tween-80) 112 % of control; (dose: 6.25 mg/kg/injection, schedule: Q01DX009 (ip), vehicle: saline with Tween-80) 118 % of control; under setting [10], 117 % of control; under setting [11], 119 % of control and 121 % of control; under setting [12], 112 % of control; under setting [13], 120 % of control.

In the case of `CC1(C)O[Te]2(OC1(C)C)OC(C)(C)C(C)(C)O2`, the T/C is, setting by setting: (dose: 12.5 mg/kg/injection, schedule: Q01DX001 (ip), vehicle: saline with Tween-80) 104 % of control; under setting [14], 113 % of control.

With `CNC(=O)O/N=C(\CN=[N+]=[N-])C(C)(C)C`, the T/C is 92 % of control (dose: 0.2 mg/kg/injection, schedule: Q01DX009 (ip), vehicle: saline); 88 % of control (dose: 0.39 mg/kg/injection, schedule: Q01DX009 (ip), vehicle: saline); 122 % of control (dose: 0.78 mg/kg/injection, schedule: Q01DX009 (ip), vehicle: saline).

In the case of `CCC1(C)CCC2=C(CCC3C(C)(C(=O)O)CCCC23C)C1` (centres undefined), the T/C is 100 % of control under setting [11]; 96 % of control under setting [15]; 87 % of control under setting [12]; 100 % of control under setting [13]; 96 % of control under setting [2].

With `Cc1c2oc3c(C)ccc(C(=O)NCCc4ccco4)c3nc-2c(C(=O)NCCc2ccco2)c(N)c1=O`, the T/C runs as follows: under setting [1], 102 % of control; under setting [2], 99 % of control; under setting [3], 96 % of control.

As for `CCOC(=O)C1CN(Cc2ccccc2)CCC1=O` (centres undefined), the T/C was 104 % of control (dose: 50.0 mg/kg/injection, schedule: Q01DX001 (ip), vehicle: saline); 95 % of control under setting [6]; 90 % of control under setting [7].

As to `CC(/C=N/N=C(N)N)=N/N=C(N)N`, the T/C was 150 % of control under setting [9] and 90 % of control under setting [16].

On to `CC1=CC=CC(C)(Cc2ccc(-c3ccc(CC4(C)C=CC=C(C)C4=O)cc3)cc2)C1=O` (centres undefined), for which the T/C under setting [14] was 95 % of control; the T/C (dose: 50.0 mg/kg/injection, schedule: Q01DX001 (ip), vehicle: saline with Tween-80) is 95 % of control; the T/C (dose: 100.0 mg/kg/injection, schedule: Q01DX001 (ip), vehicle: saline with Tween-80) is 90 % of control.

With `CC(C)Cc1c[nH]c(=O)[nH]c1=O`, the T/C under setting [1] was 90 % of control, the T/C under setting [2] was 90 % of control and the T/C under setting [3] is 90 % of control.

For the compound `COc1cccn(C/C=C(\C)CCC=C(C)C)c1=O`, the T/C was 116 % of control under setting [10]; 109 % of control under setting [11]; 91 % of control under setting [15]; 93 % of control (dose: 80.0 mg/kg/injection, schedule: Q01DX009 (ip), vehicle: saline with Tween-80); 100 % of control under setting [1]; 116 % of control under setting [16].

`CCCCCCCCC(=O)N(C)OC`: the T/C runs as follows: (dose: 25.0 mg/kg/injection, schedule: Q04DX003 (ip), vehicle: saline with Tween-80) 104 % of control; under setting [15], 100 % of control; under setting [1], 100 % of control.

`Cc1ccc(C2(C(=O)O)CCCC2)cc1`: the T/C by setting is: (dose: 65.0 mg/kg/injection, schedule: Q01DX009 (ip), vehicle: Klucel (hydroxypropylcellulose) (HPC)) 103 % of control; (dose: 150.0 mg/kg/injection, schedule: Q01DX009 (ip), vehicle: Klucel (hydroxypropylcellulose) (HPC)) 94 % of control; under setting [13], 91 % of control.

As for `CCCCCCCCCCCC[N+]1(CCCCCCCCCCCC)CCCC(C)C1` (centres undefined), where the note is “dose: 0.37 mg/kg/injection, schedule: Q01DX009 (ip), vehicle: Klucel (hydroxypropylcellulose) (HPC)”, the T/C was 108 % of control.
